Source: US20200187499A1, “SUBSTITUTED BENZYL-4-AMINOPICOLINIC ESTERS AND PYRIMIDINO-4-CARBOXYLIC ESTERS, METHODS FOR THE PRODUCTION THEREOF, AND USE THEREOF AS HERBICIDES AND PLANT GROWTH REGULATORS” (Bayer CropScience Aktiengesellschaft, priority 2017, published 2020)

Legend:
Type in all cases: in vivo
[1] = test system: AMARE; test: Post-emergence herbicidal action; conditions: Table 5, post-emergence (PO), 320 g/ha, assessed after about 3 weeks
Procedure, shortened: (§1)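 Visual % damage at ~3 weeks after spraying, rated against untreated controls (100% = plants dead, 0% = like control). Treatment: one-leaf stage, greenhouse, sandy loam; WP or EC formulation in water, 600 to 800 l/ha, 0.2% wetting agent.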

[2] = test system: ABUTH; test: Post-emergence herbicidal action; conditions: Table 5, post-emergence (PO), 320 g/ha, assessed after about 3 weeks
Procedure, shortened: as §1

[3] = test system: SETVI; test: Post-emergence herbicidal action; conditions: Table 5, post-emergence (PO), 320 g/ha, assessed after about 3 weeks
Procedure, shortened: as §1

[4] = test system: STEME; test: Post-emergence herbicidal action; conditions: Table 5, post-emergence (PO), 320 g/ha, assessed after about 3 weeks
Procedure, shortened: as §1

[5] = test system: ECHCG; test: Post-emergence herbicidal action; conditions: Table 5, post-emergence (PO), 320 g/ha, assessed after about 3 weeks
Procedure, shortened: as §1

[6] = test system: POLCO; test: Post-emergence herbicidal action; conditions: Table 5, post-emergence (PO), 320 g/ha, assessed after about 3 weeks
Procedure, shortened: as §1

[7] = test system: VIOTR; test: Post-emergence herbicidal action; conditions: Table 5, post-emergence (PO), 320 g/ha, assessed after about 3 weeks
Procedure, shortened: as §1

[8] = test system: PHBPU; test: Post-emergence herbicidal action; conditions: Table 5, post-emergence (PO), 320 g/ha, assessed after about 3 weeks
Procedure, shortened: as §1

[9] = test system: AMARE; test: Pre-emergence herbicidal action; conditions: Table 2, pre-emergence (PE), 320 g/ha, scored after 3 weeks
Procedure, shortened: (§2)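 Greenhouse pre-emergence test in sandy loam: formulated compound (wettable powder or emulsion concentrate) sprayed on the covering soil at a water rate of 600 to 800 l/ha with 0.2% wetting agent. Scoring is visual after a 3-week test period, expressed as % activity where 0% equals untreated control and 100% equals dead plants.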

[10] = test system: ABUTH; test: Pre-emergence herbicidal action; conditions: Table 2, pre-emergence (PE), 320 g/ha, scored after 3 weeks
Procedure, shortened: as §2

[11] = test system: SETVI; test: Pre-emergence herbicidal action; conditions: Table 2, pre-emergence (PE), 320 g/ha, scored after 3 weeks
Procedure, shortened: as §2

[12] = test system: ECHCG; test: Pre-emergence herbicidal action; conditions: Table 2, pre-emergence (PE), 320 g/ha, scored after 3 weeks
Procedure, shortened: as §2

[13] = test system: POLCO; test: Pre-emergence herbicidal action; conditions: Table 2, pre-emergence (PE), 320 g/ha, scored after 3 weeks
Procedure, shortened: as §2

[14] = test system: VIOTR; test: Pre-emergence herbicidal action; conditions: Table 2, pre-emergence (PE), 320 g/ha, scored after 3 weeks
Procedure, shortened: as §2

[15] = test system: ALOMY; test: Pre-emergence herbicidal action; conditions: Table 2, pre-emergence (PE), 320 g/ha, scored after 3 weeks
Procedure, shortened: as §2

| SMILES | Herbicidal action against AMARE [1] [%] | Herbicidal action against ABUTH [2] [%] | Herbicidal action against SETVI [3] [%] | Herbicidal action against STEME [4] [%] | Herbicidal action against ECHCG [5] [%] | Herbicidal action against POLCO [6] [%] | Herbicidal action against VIOTR [7] [%] | Herbicidal action against PHBPU [8] [%] | Herbicidal action against AMARE [9] [%] | Herbicidal action against ABUTH [10] [%] | Herbicidal action against SETVI [11] [%] | Herbicidal action against ECHCG [12] [%] | Herbicidal action against POLCO [13] [%] | Herbicidal action against VIOTR [14] [%] | Herbicidal action against ALOMY [15] [%] |
| --- | --- | --- | --- | --- | --- | --- | --- | --- | --- | --- | --- | --- | --- | --- | --- |
| Nc1cc(-c2ccc3ccsc3c2)nc(C(=O)OCc2ccccc2F)c1Cl [Example I-01] | 100 | 100 | 80 | 100 | 90 | 100 | 50 | 90 | 100 | 80 | 90 | 100 | 100 | 70 | 60 |
| Nc1cc(-c2ccc3occc3c2)nc(C(=O)OCc2ccc(F)c(F)c2F)c1Cl [Example I-13] | 100 | 100 | 90 | 100 | 90 | 100 | 100 | 80 | 100 | 30 | 100 | 90 | 100 | 30 | 80 |
| Nc1cc(-c2ccc3ccsc3c2)nc(C(=O)OCc2cccc(F)c2)c1Cl [Example I-10] | 100 | 100 | 90 | 100 | 90 | 100 | 70 | 80 | 100 | 30 | 90 | 100 | 0 | 40 | 70 |
| COc1ccc(COC(=O)c2nc(-c3ccc4ccoc4c3)c(F)c(N)c2Cl)cc1 [Example I-03] | 100 | 100 | 90 | 100 | 100 | 40 | 100 | 40 | 100 | 80 | 40 | 90 | 50 | 90 | 20 |
| Nc1cc(-c2ccc3sccc3c2)nc(C(=O)OCc2ccc(F)cc2F)c1Cl [Example I-18] | 100 | 100 | 90 | 80 | 100 | 80 | 90 | 80 | 100 | 40 | 70 | 100 | 10 | 20 | 30 |
| Nc1cc(-c2ccc3occc3c2)nc(C(=O)OCc2ccc(F)cc2)c1Cl [Example I-05] | 100 | 100 | 100 | 100 | 100 | 30 | 90 | 80 | 90 | 50 | 90 | 90 | 90 | 50 | 30 |
| Nc1c(F)c(-c2ccc3ccoc3c2)nc(C(=O)OCc2ccc(F)cc2)c1Cl [Example I-04] | 100 | 100 | 90 | 100 | 100 | 80 | 50 | 40 | 100 | 90 | 70 | 90 | 50 | 40 | 40 |
| Nc1cc(-c2ccc3ccsc3c2)nc(C(=O)OCc2ccc(F)cc2)c1Cl [Example I-07, 4-fluorobenzyl 4-amino-6-(1-benzothiophen-6-yl)-3-chloropyridine-2-carboxylate] | 100 | 100 | 100 | 0 | 90 | 80 | 60 | 80 | 100 | 80 | 90 | 100 | 100 | 50 | 90 |
| Nc1cc(-c2ccc3sccc3c2)nc(C(=O)OCc2ccc(C(F)(F)F)cc2)c1Cl [Example I-16] | 100 | 100 | 90 | 80 | 90 | 90 | 90 | 80 | 80 | 80 | 80 | 100 | 70 | 30 | 30 |
| Nc1cc(-c2ccc3sccc3c2)nc(C(=O)OCc2cccc(F)c2)c1Cl [Example I-09] | 100 | 100 | 90 | 100 | 100 | 70 | 90 | 80 | 90 | 70 | 90 | 100 | 90 | 60 | 20 |
| Nc1cc(-c2ccc3ccoc3c2)nc(C(=O)OCc2cccc(F)c2)c1Cl [Example I-02] | 100 | 90 | 100 | 100 | 90 | 100 | 70 | 70 | 100 | 30 | 90 | 100 | 100 | 70 | 80 |
